In patent US9849104B2 (Gemphire Therapuetics Inc., priority 2015, dated 2017):
Where two headings read alike, the source gives them in different places.

Tests used:
[1] = target: T1, CYP2C9 (Homo sapiens, UniProt P11712); test: Inhibition of CYP2C9 (7-hydroxylation of (S)-warfarin) in human liver microsomes; format: in vitro ADME; conditions: probe (S)-warfarin (7-hydroxylation), 4 μM, read-out: inhibitory activity toward CYP2C9
T1 construct: Human livers, HLM141, HLM143, and HLM144 were selected from the University of Washington Human Liver Bank for this study; Microsomes were prepared; tissue University of Washington Human Liver Bank HLM141, HLM143, HLM144; host or cells: human liver microsomes
Method: (§1) Human livers, HLM141, HLM143, and HLM144 were selected from the University of Washington Human Liver Bank for this study. […] The seven isoforms and the metabolic pathway of each of the probes used to monitor specific isoform activity are listed below.
CYP2C9: The 7-hydroxylation of (S)-warfarin (4 μM). The reaction is monitored by quantitative GC/MS using 7-hydroxywarfarin-(d5-phenyl) as the internal standard.

[2] = target: T2, CYP2A6 (Homo sapiens, UniProt P11509); test: Inhibition of CYP2A6 (7-hydroxylation of coumarin) in human liver microsomes; format: in vitro ADME; conditions: probe coumarin (7-hydroxylation), 4 μM, read-out: inhibitory activity toward CYP2A6
T2 construct: Human livers, HLM141, HLM143, and HLM144 were selected from the University of Washington Human Liver Bank for this study; Microsomes were prepared; tissue University of Washington Human Liver Bank HLM141, HLM143, HLM144; host or cells: human liver microsomes
T2 sequence (P11509 1-494): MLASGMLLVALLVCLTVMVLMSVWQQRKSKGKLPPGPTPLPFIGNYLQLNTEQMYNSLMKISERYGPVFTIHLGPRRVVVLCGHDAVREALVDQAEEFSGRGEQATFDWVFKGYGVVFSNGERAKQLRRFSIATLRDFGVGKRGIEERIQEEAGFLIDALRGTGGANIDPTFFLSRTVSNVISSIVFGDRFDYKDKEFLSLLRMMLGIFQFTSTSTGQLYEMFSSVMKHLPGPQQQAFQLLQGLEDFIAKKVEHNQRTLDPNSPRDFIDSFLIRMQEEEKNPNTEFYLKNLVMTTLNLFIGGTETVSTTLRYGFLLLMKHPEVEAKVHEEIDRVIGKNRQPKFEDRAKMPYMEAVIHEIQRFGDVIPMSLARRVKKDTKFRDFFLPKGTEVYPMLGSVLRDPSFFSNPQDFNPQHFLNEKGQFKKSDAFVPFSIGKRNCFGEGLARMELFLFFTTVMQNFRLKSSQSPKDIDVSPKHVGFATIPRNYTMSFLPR
Method: as §1
CYP2A6: The 7-hydroxylation of coumarin (4 μM). The reaction is monitored by HPLC using florescence detection.

[3] = target: T3, CYP2E1 (Homo sapiens, UniProt P05181); test: Inhibition of CYP2E1 (p-nitrocatechol from p-nitrophenol) in human liver microsomes; format: in vitro ADME; conditions: 1500 μM
T3 construct: Human livers, HLM141, HLM143, and HLM144 were selected from the University of Washington Human Liver Bank for this study; Microsomes were prepared; tissue University of Washington Human Liver Bank HLM141, HLM143, HLM144; host or cells: human liver microsomes
Method: as §1
CYP2E1: The formation of p-nitrocatechol from p-nitrophenol (40 μM). Amounts of product formed are monitored by HPLC.

[4] = gemcabene 300 and 900 mg QD with atorvastatin 80 mg QD
[5] = test system: STAM model of non-alcoholic steatohepatitis (NASH); conditions: for Fasting blood glucose (mean ± SD): Day 18, 8 hours of fasting; for Non-fasting blood glucose (mean ± SD): termination (Day 21); for Plasma GGT (mean ± SD) / Plasma creatinine (mean ± SD) / Plasma ALP (mean ± SD): mouse, in vivo, po
Method: Telmisartan (Micardis®) was purchased from Boehringer Ingelheim GmbH (Germany) and dissolved in pure water.
Telmisartan was administered at a dose of 10 mg/kg once daily.
Eight-hour fasting blood glucose was measured in whole blood using Life Check (EIDIA Co. Ltd., Japan). For plasma biochemistry, eight-hour fasting blood was collected in polypropylene tubes with anticoagulant (Novo-Heparin, Mochida Pharmaceutical, Japan) and centrifuged at 1,000×g for 15 minutes at 4° C. The supernatant was collected and stored at −80° C. until use. Plasma insulin levels were quantified by Ultra Sensitive Mouse Insulin ELISA kit (Morinaga Institute of Biological Science, Inc., Japan).
On the day of termination, non-fasting blood glucose was measured in whole blood using Life Check. For plasma biochemistry, non-fasting blood was collected in polypropylene tubes with anticoagulant (Novo-Heparin) and centrifuged at 1,000×g for 15 minutes at 4° C. The supernatant was collected and stored at −80° C. until use. Plasma ALT, AST, ALP, GGT, BUN, creatinine and total bilirubin levels were measured by FUJI DRI-CHEM 7000 (Fujifilm Corporation, Japan). Plasma ketone body levels were quantified by EnzyChrom™ Ketone Body Assay Kit (BioAssay Systems, USA).
Liver samples were homogenized in chloroform-methanol (2:1, v/v) and incubated overnight at room temperature. After washing with chloroform-methanol-water (8:4:3, v/v/v), the extracts were evaporated to dryness, and dissolved in isopropanol. Liver triglyceride content was measured by Triglyceride E-test (Wako Pure Chemical Industries). […]
Statistical analyses were performed using Bonferroni Multiple Comparison Test on GraphPad Prism 6 (GraphPad Software Inc., USA). […] Results were expressed as mean±SD.
The viability, clinical signs and behavior were monitored daily. Body weight was recorded before the treatment. […] The animals were sacrificed by exsanguinations through direct cardiac puncture under isoflurane anesthesia (Pfizer Inc.) at 9 weeks of age.

[6] = target: T4, CYP2D6 (Homo sapiens, UniProt P10635); test: Inhibition of CYP2D6 (demethylation of dextromethorphan) in human liver microsomes; format: in vitro ADME; conditions: probe dextromethorphan (O-demethylation), 5 μM, read-out: inhibitory activity toward CYP2D6
T4 construct: Human livers, HLM141, HLM143, and HLM144 were selected from the University of Washington Human Liver Bank for this study; Microsomes were prepared; tissue University of Washington Human Liver Bank HLM141, HLM143, HLM144; host or cells: human liver microsomes
Method: as §1
CYP2D6: The 0-demethylation of dextromethorphan (5 μM). The reaction is monitored by high performance liquid chromatography (HPLC) using florescence detection.

[7] = Musculoskeletal adverse events, study A4141001; format: in vivo, human
[8] = test system: fibrinogen; test: Fibrinogen in hypercholesterolemic patients, post hoc analysis of Study A4141001; format: in vivo, human; conditions: for Difference in fibrinogen change, Gem-placebo: subgroup baseline >400 mg/dL
Method: Week 0) and the end (Visit T8, Week 8). Analyses of covariance (ANCOVA) methods used in the original study A4141001 were again utilized in these analyses. For fibrinogen, baseline was defined as the last pretreatment visit, and endpoint was the last visit up to and including the day after last dose of medication. The least-squares means and p-values for change from baseline in fibrinogen were calculated using an ANCOVA model with the effects of baseline lipid value and treatment. Also, medians and p-values for percent change from baseline. […] This, consequently, was the definition for the modified intent-to treat (MITT) population.

[9] = STAM NASH mice, 30 mg/kg PO QD, 30 mg/kg
[10] = STAM NASH mice, 100 mg/kg PO QD, 100 mg/kg
[11] = STAM NASH mice, 100 mg/kg PO QD, Day 21, 100 mg/kg
[12] = STAM NASH mice, 300 mg/kg PO QD, 300 mg/kg
[13] = A4141001, patient type IIa + IIb

T1 sequence (P11712 whole entry): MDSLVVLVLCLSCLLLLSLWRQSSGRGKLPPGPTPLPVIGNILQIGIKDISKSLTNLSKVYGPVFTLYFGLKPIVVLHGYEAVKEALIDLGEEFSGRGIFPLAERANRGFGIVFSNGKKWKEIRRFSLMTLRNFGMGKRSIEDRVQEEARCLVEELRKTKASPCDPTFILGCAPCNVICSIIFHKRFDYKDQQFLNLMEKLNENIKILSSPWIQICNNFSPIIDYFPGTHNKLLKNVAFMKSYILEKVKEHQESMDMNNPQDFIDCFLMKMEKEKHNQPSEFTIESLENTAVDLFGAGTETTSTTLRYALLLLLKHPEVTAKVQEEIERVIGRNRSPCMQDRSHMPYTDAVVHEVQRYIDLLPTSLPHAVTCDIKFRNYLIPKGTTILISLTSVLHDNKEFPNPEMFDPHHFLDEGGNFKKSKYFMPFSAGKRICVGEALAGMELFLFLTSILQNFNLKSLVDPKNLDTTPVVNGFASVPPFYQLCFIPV
T3 sequence (P05181 whole entry): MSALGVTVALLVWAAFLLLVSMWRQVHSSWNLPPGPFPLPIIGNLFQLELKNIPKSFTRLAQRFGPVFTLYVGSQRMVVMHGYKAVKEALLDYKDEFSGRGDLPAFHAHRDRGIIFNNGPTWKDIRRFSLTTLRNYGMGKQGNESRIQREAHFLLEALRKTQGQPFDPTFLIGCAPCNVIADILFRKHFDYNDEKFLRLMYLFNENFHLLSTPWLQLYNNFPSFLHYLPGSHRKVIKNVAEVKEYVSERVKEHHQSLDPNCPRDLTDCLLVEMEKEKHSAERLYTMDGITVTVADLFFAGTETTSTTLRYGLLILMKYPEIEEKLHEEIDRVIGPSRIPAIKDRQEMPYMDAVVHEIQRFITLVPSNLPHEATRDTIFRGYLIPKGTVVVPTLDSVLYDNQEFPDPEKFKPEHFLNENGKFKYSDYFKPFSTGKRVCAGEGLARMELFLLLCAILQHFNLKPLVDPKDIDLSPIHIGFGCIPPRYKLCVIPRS
T4 sequence (P10635 whole entry): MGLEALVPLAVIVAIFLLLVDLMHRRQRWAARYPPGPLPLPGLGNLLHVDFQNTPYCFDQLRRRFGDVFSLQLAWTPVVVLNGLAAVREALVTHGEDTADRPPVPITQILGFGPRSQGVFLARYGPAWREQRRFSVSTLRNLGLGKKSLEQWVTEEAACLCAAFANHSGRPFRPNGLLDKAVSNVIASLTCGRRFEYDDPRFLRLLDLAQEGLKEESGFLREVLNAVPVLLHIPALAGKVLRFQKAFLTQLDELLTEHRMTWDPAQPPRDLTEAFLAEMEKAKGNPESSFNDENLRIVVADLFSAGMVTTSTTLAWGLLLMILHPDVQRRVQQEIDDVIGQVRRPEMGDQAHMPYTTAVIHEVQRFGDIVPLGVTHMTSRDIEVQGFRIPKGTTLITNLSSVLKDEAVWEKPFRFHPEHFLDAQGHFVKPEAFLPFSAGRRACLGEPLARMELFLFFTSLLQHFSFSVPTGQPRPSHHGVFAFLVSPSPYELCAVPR

In the case of `CC(C)(CCCCOCCCCC(C)(C)C(=O)O)C(=O)O` [Gemcabene, 6,6′-oxybis(2,2-dimethylhexanoic acid)], the inhibition at 1500 µM [1] is reported as 10 to 20%, the inhibition at 1500 µM [2] is reported as 10 to 20% and the CYP2E1 activity enhanced [3] is reported as “about 20%”. For the same compound, the “effect on atorvastatin pharmacokinetics (Cmax, tmax, AUC(0-24), t½, atorvastatin and metabolites)” value [4] was “no clinically important effect”, the “NAFLD Activity score, NAS (mean ± SD)” value ([5]; STAM NASH mice, 30 mg/kg PO QD 6-9 wks, 30 mg/kg) was “significant reduction” and the “Fasting blood glucose (mean ± SD)” value [5, 9] was “no significant differences”. The “Liver triglyceride (mean ± SD)” value ([5]; STAM NASH mice, 30 mg/kg PO QD, Day 21, 30 mg/kg) was “no significant differences”, the “Non-fasting blood glucose (mean ± SD)” value [5, 9] was “no significant differences” and the “Fasting blood glucose (mean ± SD)” value [5, 10] was “no significant differences”. The “Liver triglyceride (mean ± SD)” value [5, 11] was “no significant differences”, the “Plasma ALT (mean ± SD)” value [5, 11] was “significant decrease” and the “Non-fasting blood glucose (mean ± SD)” value [5, 10] was “no significant differences”. The “NAFLD Activity score, NAS (mean ± SD)” value ([5]; STAM NASH mice, 300 mg/kg PO QD 6-9 wks, 300 mg/kg) was “significant reduction”, the “Fasting blood glucose (mean ± SD)” value [5, 12] was “no significant differences” and the “Liver triglyceride (mean ± SD)” value ([5]; STAM NASH mice, 300 mg/kg PO QD, Day 21, 300 mg/kg) was “no significant differences”. For the same compound, the “Non-fasting blood glucose (mean ± SD)” value [5, 12] was “no significant differences”, the “fibrosis area compared with the Vehicle in NASH group” value ([5]; STAM NASH mice, all treatment groups (gemcabene 30, 100, 300 mg/kg; telmisartan 10 mg/kg)) was “significantly reduced” and the “Plasma GGT (mean ± SD)” value ([5]; 30 mg/kg) was 1 ± 0 U/L. The “Plasma creatinine (mean ± SD)” value ([5]; 30 mg/kg) was 0.1 ± 0.0 mg/dL, the “Plasma ALP (mean ± SD)” value ([5]; 100 mg/kg) was “significant increases” and the “Plasma GGT (mean ± SD)” value ([5]; 100 mg/kg) was 1 ± 0 U/L. The “Plasma ALP (mean ± SD)” value ([5]; 300 mg/kg) was “significant increases”, the “Plasma GGT (mean ± SD)” value ([5]; 300 mg/kg) was 1 ± 0 U/L and the “Plasma creatinine (mean ± SD)” value ([5]; 300 mg/kg) was “significant increase”. The inhibition at 1500 µM [6] was 10 to 20%, the “% = the percent of patients experiencing a musculoskeletal adverse event” value (“% = the percent” for short) ([7]; A4141001, patient type IIa) was 0.0% and the “No = the number of muscle skeletal adverse events” value (from here on “No = the number”) ([7]; A4141001, patient type IIa) was 0. For the same compound, the “% = the percent” value [7, 13] was 0.0%, the “No = the number” value [7, 13] was 0 and the “% = the percent” value ([7]; A4141001, patient type IIb) was 0.0%. For the same compound, the “No = the number” value ([7]; A4141001, patient type IIb) was 0, the “Difference in fibrinogen change = Gem − Placebo” value ([8]; MITT, Gemcabene 300 mg) was −13.0 and the “Difference in fibrinogen change, Gem-placebo” value ([8]; Gem 300 mg) was 5.0. The “Difference in fibrinogen change, Gem-placebo” value ([8]; Gem 900 mg) was −34.0.
